This note sets out measurements from patent US20240018207A1, “INTERFERON TAU FC-FUSION PROTEINS AND METHODS FOR TREATING CORONAVIRUS INFECTIONS” (Southlake Pharmaceuticals, Inc., priority 2020, published 2024).

Data set [1] concerns SARS CoV-2 (USA_WA1/2020). In words: microbe, parasite or virus in culture. The data set is classed as cell-based. As to conditions: Severe acute respiratory syndrome coronavirus 2, Vero C1008; SARS-CoV-2 CPE assay, reference compounds.
The nature of the next data set: in vitro. Conditions: human.
The test system of another data set is hCoV-229E. In words: hCoV-229E CPE assay in MRC5 cells. Type of data set: cell-based. Here is the method:
The method of this CPE assay is as follows: In 96-well plates, MRC5 cells were seeded at an appropriate density and cultured at 37° C. and 5% CO2 overnight. […] Then medium in each well was replenished with medium containing serially diluted samples and virus. […] Cytotoxicity of the compounds was assessed under the same conditions, but without virus infection, in parallel. Cell viability was measured by CellTiter Glo following the manufacturer's manual. IC50 and CC50 values were calculated with GraphPad Prism software.

Broadly, the IC50 is the concentration that inhibits the measured activity by half. As for `CCC(CC)COC(=O)[C@H](C)N[P@](=O)(OC[C@H]1O[C@@](C#N)(c2ccc3c(N)ncnn23)[C@H](O)[C@@H]1O)Oc1ccccc1` [Remdesivir], the IC50 in data set [1] is 3.9 µM; with hCoV-229E (Human coronavirus 229E, MRC5, 72 h, read-out: Antiviral IC50), 0.0177 µM. For the same compound, the CC50 in “in vitro” is 26.7 µM. Moreover, the “Selectivity Index (CC50/IC50) (Based upon nM)” value in the data set on hCoV-229E (HCoV-229E CPE assay) came out at 1508.76.
